Results from PubChem BioAssay (NCI).
Values joined by “and” are separate entries in the source; they are usually repeats but may differ in a detail not shown here. Equal values may be shown once.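 Protocol summary: plate cells (96-well), add compound at 5 concentrations, incubate 48 h, interpolate endpoints linearly. At the GI50, growth is halved. TGI: concentration producing complete growth inhibition.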

Key:
Experiment in all cases: NCI anticancer screen, dose series, 48 h
HT29 colon = test system: HT29 colon
HCT-15 colon = test system: HCT-15 colon
CCRF-CEM leukemia = test system: CCRF-CEM leukemia
HS 578T breast = test system: HS 578T breast
A498 renal = test system: A498 renal
HOP-92 NSCLC = test system: HOP-92 NSCLC
MCF7 breast = test system: MCF7 breast
IGROV1 ovarian = test system: IGROV1 ovarian
KM12 colon = test system: KM12 colon
HCT-116 colon = test system: HCT-116 colon

| SMILES | GI50 (HT29 colon) | TGI (HT29 colon) | GI50 (HCT-15 colon) | TGI (HCT-15 colon) | GI50 (CCRF-CEM leukemia) | TGI (CCRF-CEM leukemia) | GI50 (HS 578T breast) | TGI (HS 578T breast) | GI50 (A498 renal) | TGI (A498 renal) | GI50 (HOP-92 NSCLC) | TGI (HOP-92 NSCLC) | GI50 (MCF7 breast) | TGI (MCF7 breast) | GI50 (IGROV1 ovarian) | TGI (IGROV1 ovarian) | GI50 (KM12 colon) | TGI (KM12 colon) | GI50 (HCT-116 colon) | TGI (HCT-116 colon) |
| --- | --- | --- | --- | --- | --- | --- | --- | --- | --- | --- | --- | --- | --- | --- | --- | --- | --- | --- | --- | --- |
| COc1cc(/C=C/C(=O)C(C(=O)/C=C/c2ccc(OC(=O)CCNc3nnc(C)s3)c(OC)c2)C(=O)CCNc2nnc(C)s2)ccc1OC(=O)CCNc1nnc(C)s1 | 1630 nM | 3.56 µM | 2.47 µM | 5.86 µM | 1.09 µM | 2.51 µM | 2.77 µM | 9.7 µM | 2.51 µM | 6.67 µM | 2.48 µM | 8.4 µM | 2.16 µM | 12.6 µM | 1980 nM | 4.47 µM | 1.63 µM | 3.18 µM | 1.65 µM | 3.81 µM |
| Cc1[nH]n(-c2ccc(S(=O)(=O)O)cc2)c(=O)c1N=Nc1ccccc1 | – | > 100 µM | – | > 100 µM | – | – | – | > 100 µM | – | > 100 µM | – | > 100 µM | – | > 100 µM | – | > 100 µM | – | > 100 µM | – | > 100 µM |
| CNc1cccnc1/C=N/NC(N)=S | – | > 10 µM | – | > 7.32 µM | – | > 10 µM | – | > 10 µM | – | > 10 µM | – | > 10 µM | – | > 10 µM | – | > 10 µM | – | > 10 µM | – | > 8.26 µM |
| Nc1nc(Cl)c(N=Nc2ccc(Cl)cc2)c(NCC2(CO)CC(OCc3ccccc3)C2)n1 (stereo not given) | – | 20 µM and > 100 µM and 14 µM | – | > 100 µM and 20.1 µM | – | 51.5 µM and > 100 µM | 7.33 µM and 29.1 µM and 8.36 µM | 36.2 µM and > 100 µM and > 53.7 µM | 30.9 µM and > 100 µM and 20.2 µM | 91.8 µM and > 100 µM and 44.1 µM | 1.83 µM and 6.13 µM and 2.33 µM | – | 3.9 µM and 31.3 µM and 7.84 µM | 14.2 µM and > 100 µM and 22.6 µM | – | 70.3 µM and > 100 µM and 29.9 µM | 20 µM and 41.3 µM and 7.74 µM | > 100 µM and 28 µM | 7.37 µM and 40.9 µM and 8.76 µM | > 100 µM and 32.4 µM |
| CC(=O)c1c(O)ccc2c(C)c(C(=O)O)oc12 | > 100000 nM | > 100 µM | > 100 µM | > 100 µM | > 100 µM | > 100 µM | > 100 µM | > 100 µM | > 100 µM | > 100 µM | > 100 µM | > 100 µM | > 100 µM | > 100 µM | > 100000 nM | > 100 µM | > 100 µM | > 100 µM | > 100 µM | > 100 µM |
| COc1ccc(Cn2cc3c(c2-c2ccc(O)cc2)CCc2cnoc2-3)cc1 | 587 nM | 4.79 µM | 0.395 µM | 21.6 µM | 0.304 µM | 4.2 µM | 0.252 µM | 6.62 µM | 0.203 µM | 0.766 µM | 13.9 µM | 33.4 µM | 0.333 µM | 15.5 µM | 578 nM | 23.6 µM | 0.241 µM | 10.4 µM | 0.422 µM | 14.7 µM |
| COc1cc2c3c(n(CCCNC(=O)OCC4c5ccccc5-c5ccccc54)c(=O)c2cc1OC)-c1cc2c(cc1C3=O)OCO2 | > 100000 nM | > 100 µM | > 63.2 µM | > 100 µM | – | – | 22.8 µM | > 100 µM | 24.9 µM | > 100 µM | 48.8 µM | > 100 µM | 7.62 µM | > 100 µM | > 100000 nM | > 100 µM | > 100 µM | > 100 µM | 13.8 µM | > 100 µM |
| COc1cc(C(=O)/C=C/c2c(-c3ccc(F)cc3)nc3ncccn23)cc(OC)c1OC | 2520 nM | 6.25 µM | – | – | 4.05 µM | > 100 µM | 2.01 µM | 11.2 µM | 2.2 µM | 7.58 µM | 1.77 µM | 92.9 µM | 1.61 µM | 15.6 µM | 1930 nM | 9.53 µM | 1.69 µM | 4.37 µM | 1.53 µM | 4.45 µM |
| O=C(CC(O)c1ccncc1)c1ccccc1 (stereo not given) | 28600 nM | 85.3 µM | 28.2 µM | > 100 µM | 30.7 µM | > 100 µM | 36.4 µM | > 100 µM | – | – | 16.1 µM | 69.6 µM | 24.7 µM | > 100 µM | 35900 nM | > 100 µM | 33.7 µM | > 100 µM | 19.3 µM | 54.6 µM |
| Cc1ccc(/C=C/C(=O)c2ccc(N)cc2)c(C)c1 | – | – | – | – | – | – | 18.2 µM | 80 µM | 13.6 µM | 27.5 µM | 1.96 µM | 4.43 µM | 8.29 µM | 37.2 µM | 1410 nM | 3.08 µM | 4.38 µM | 16.8 µM | 1.91 µM | 3.76 µM |
| COc1cc(-n2cc(-c3ccc(F)cc3)[nH]c2=S)cc(OC)c1OC | > 100000 nM | > 100 µM | > 100 µM | > 100 µM | > 100 µM | > 100 µM | 18.3 µM | > 100 µM | – | – | 45.5 µM | > 100 µM | 55.9 µM | > 100 µM | 41600 nM | > 100 µM | > 100 µM | > 100 µM | > 100 µM | > 100 µM |
